# Patent US7612064B2, “Sulfopyrroles” (Takeda Pharmaceutical Company Limited, priority 2003, dated 2009)
# What was measured:
# MRC5 = experiment: MTS proliferation assay; assay type: cell-based; settings: MRC5, 72 h
# Summary of the method: (§1)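 Cells were exposed for 72 h under culture conditions to test compounds at final concentrations of 10, 3, 1 and 0.3 μM, added in complete medium with at most 5% DMSO. MTS reagent was then added for a further 3 h, and absorbance was read at 492 nm.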
# Jily = experiment: MTS proliferation assay; assay type: cell-based; settings: 72 h
# Summary of the method: as §1
# Jurkat = experiment: MTS proliferation assay; assay type: cell-based, human; settings: 72 h
# Summary of the method: as §1
# HeLa = experiment: MTS proliferation assay; assay type: cell-based, human; settings: 72 h
# Summary of the method: as §1
# [1] = Hoechst 33342 nuclear staining; assay type: cell-based; settings: for Hoechst 33342 nuclear staining score, H460: H460 cells; for Hoechst 33342 nuclear staining score, HeLa: HeLa cells; for Hoechst 33342 nuclear staining score, Jily: Jily cells; for Hoechst 33342 nuclear staining score, Jurkat: Jurkat cells; for Hoechst 33342 nuclear staining score, MRC5: MRC5 cells; as to Hoechst 33342 nuclear staining score, PBLs: key: 0: no activity; 1: weak activity comprising less than 50% of the cells; 2: strong activity comprising more than 50% of the cells;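 as to all read-outs here: apoptotic nuclei scored 0 none 1 weak under 50% of cells 2 strong over 50% of cells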
# Summary of the method: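 Cells were plated in 96 well tissue culture plates in 80 μl complete medium, with 3-5*10^3 cells per well for adherent lines and 8-10*10^3 for suspension lines. Adherent cells spread for 24 h before treatment, while suspension cells were treated right after seeding. Compounds were added in 20 μl complete medium containing max 5% DMSO.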
SMILES,IC50 (Jily),"Hoechst 33342 nuclear staining score, H460 ([1]; conc 0.1)","Hoechst 33342 nuclear staining score, H460 ([1]; conc 0.3)","Hoechst 33342 nuclear staining score, H460 ([1]; conc 1)","Hoechst 33342 nuclear staining score, H460 ([1]; conc 3)","Hoechst 33342 nuclear staining score, HeLa ([1]; conc 0.1)","Hoechst 33342 nuclear staining score, HeLa ([1]; conc 0.3)","Hoechst 33342 nuclear staining score, HeLa ([1]; conc 1)","Hoechst 33342 nuclear staining score, HeLa ([1]; conc 3)","Hoechst 33342 nuclear staining score, Jily ([1]; conc 0.1)","Hoechst 33342 nuclear staining score, Jily ([1]; conc 0.3)","Hoechst 33342 nuclear staining score, Jily ([1]; conc 1)","Hoechst 33342 nuclear staining score, Jily ([1]; conc 3)","Hoechst 33342 nuclear staining score, Jurkat ([1]; conc 0.1)","Hoechst 33342 nuclear staining score, Jurkat ([1]; conc 0.3)","Hoechst 33342 nuclear staining score, Jurkat ([1]; conc 1)","Hoechst 33342 nuclear staining score, Jurkat ([1]; conc 3)","Hoechst 33342 nuclear staining score, MRC5 ([1]; conc 0.1)","Hoechst 33342 nuclear staining score, MRC5 ([1]; conc 0.3)","Hoechst 33342 nuclear staining score, MRC5 ([1]; conc 1)",other results
"COc1ccc(S(=O)(=O)n2cc(-c3cccnc3)cc2-c2cc(OC)c(OC)c(OC)c2)cc1 [Example 76, 1-p-Methoxyphenylsulfonyl-4-(3-pyridyl)-2-(3,4,5-trimethoxyphenyl)-pyrrole]",< 0.2 µM,2 (strong activity comprising more than 50% of the cells),2 (strong activity comprising more than 50% of the cells),2 (strong activity comprising more than 50% of the cells),2 (strong activity comprising more than 50% of the cells),1 (weak activity comprising less than 50% of the cells),2 (strong activity comprising more than 50% of the cells),2 (strong activity comprising more than 50% of the cells),2 (strong activity comprising more than 50% of the cells),2 (strong activity comprising more than 50% of the cells),2 (strong activity comprising more than 50% of the cells),2 (strong activity comprising more than 50% of the cells),2 (strong activity comprising more than 50% of the cells),2 (strong activity comprising more than 50% of the cells),2 (strong activity comprising more than 50% of the cells),2 (strong activity comprising more than 50% of the cells),2 (strong activity comprising more than 50% of the cells),1 (weak activity comprising less than 50% of the cells),1 (weak activity comprising less than 50% of the cells),1 (weak activity comprising less than 50% of the cells),"IC50 (MRC5; Homo sapiens): < 0.2 µM; IC50 (Jurkat; Homo sapiens): < 0.2 µM; IC50 (HeLa; Homo sapiens): < 0.2 µM; Hoechst 33342 nuclear staining score, MRC5 ([1]; conc 3): 1 (weak activity comprising less than 50% of the cells); Hoechst 33342 nuclear staining score, PBLs ([1]; conc 0.1): 0; Hoechst 33342 nuclear staining score, PBLs ([1]; conc 0.3): 0; Hoechst 33342 nuclear staining score, PBLs ([1]; conc 1): 0; Hoechst 33342 nuclear staining score, PBLs ([1]; conc 3): 0"
COc1cc(-c2cc(-c3cccnc3)cn2S(=O)(=O)/C=C/c2ccccc2)cc(OC)c1OC [Example 89],> 1 µM,0,0,0,0,0,0,0,0,0,0,0,1 (weak activity comprising less than 50% of the cells),0,0,0,1 (weak activity comprising less than 50% of the cells),0,0,0,"IC50 (MRC5): > 1 µM; IC50 (Jurkat): > 1 µM; IC50 (HeLa): > 1 µM; Hoechst 33342 nuclear staining score, MRC5 ([1]; conc 3): 0; Hoechst 33342 nuclear staining score, PBLs ([1]; conc 0.1): 0; Hoechst 33342 nuclear staining score, PBLs ([1]; conc 0.3): 0; Hoechst 33342 nuclear staining score, PBLs ([1]; conc 1): 0; Hoechst 33342 nuclear staining score, PBLs ([1]; conc 3): 0"
COCCCNC(=O)c1cncc(-c2cc(-c3cc(OC)c(OC)c(OC)c3)n(S(=O)(=O)c3ccc(C)cc3)c2)c1.Cl [Example 65],< 1 µM,0,0,2 (strong activity comprising more than 50% of the cells),2 (strong activity comprising more than 50% of the cells),0,0,0,2 (strong activity comprising more than 50% of the cells),0,0,2 (strong activity comprising more than 50% of the cells),2 (strong activity comprising more than 50% of the cells),0,0,2 (strong activity comprising more than 50% of the cells),2 (strong activity comprising more than 50% of the cells),0,0,2 (strong activity comprising more than 50% of the cells),"IC50 (MRC5): < 1 µM; IC50 (Jurkat): < 1 µM; IC50 (HeLa): < 1 µM; Hoechst 33342 nuclear staining score, MRC5 ([1]; conc 3): 2 (strong activity comprising more than 50% of the cells); Hoechst 33342 nuclear staining score, PBLs ([1]; conc 0.1): 0; Hoechst 33342 nuclear staining score, PBLs ([1]; conc 0.3): 0; Hoechst 33342 nuclear staining score, PBLs ([1]; conc 1): 0; Hoechst 33342 nuclear staining score, PBLs ([1]; conc 3): 0"
COc1ccc(S(=O)(=O)n2cc(-c3cncc(C(N)=O)c3)cc2-c2cc(OC)ccc2OC)cc1 [Example 105],< 1 µM,0,0,0,2 (strong activity comprising more than 50% of the cells),0,0,0,2 (strong activity comprising more than 50% of the cells),0,0,2 (strong activity comprising more than 50% of the cells),2 (strong activity comprising more than 50% of the cells),0,0,2 (strong activity comprising more than 50% of the cells),2 (strong activity comprising more than 50% of the cells),0,0,0,"IC50 (MRC5): > 1 µM; IC50 (Jurkat): < 1 µM; IC50 (HeLa): > 1 µM; Hoechst 33342 nuclear staining score, MRC5 ([1]; conc 3): 1 (weak activity comprising less than 50% of the cells); Hoechst 33342 nuclear staining score, PBLs ([1]; conc 0.1): 0; Hoechst 33342 nuclear staining score, PBLs ([1]; conc 0.3): 0; Hoechst 33342 nuclear staining score, PBLs ([1]; conc 1): 0; Hoechst 33342 nuclear staining score, PBLs ([1]; conc 3): 0"
COc1ccc(S(=O)(=O)n2cc(-c3ccc(N)nc3)cc2-c2ccccc2OC)cc1 [Example 103],< 1 µM,0,0,0,2 (strong activity comprising more than 50% of the cells),0,0,0,2 (strong activity comprising more than 50% of the cells),0,0,2 (strong activity comprising more than 50% of the cells),2 (strong activity comprising more than 50% of the cells),0,0,2 (strong activity comprising more than 50% of the cells),2 (strong activity comprising more than 50% of the cells),0,0,0,"IC50 (MRC5): > 1 µM; IC50 (Jurkat): < 1 µM; IC50 (HeLa): > 1 µM; Hoechst 33342 nuclear staining score, MRC5 ([1]; conc 3): 1 (weak activity comprising less than 50% of the cells); Hoechst 33342 nuclear staining score, PBLs ([1]; conc 0.1): 0; Hoechst 33342 nuclear staining score, PBLs ([1]; conc 0.3): 0; Hoechst 33342 nuclear staining score, PBLs ([1]; conc 1): 0; Hoechst 33342 nuclear staining score, PBLs ([1]; conc 3): 0"
